Data as given in patent US10584116B2, “Heterocyclic sulfonamide derivative and medicine containing same” (EA Pharma Co., Ltd., priority 2016, dated 2020).

How the values were obtained:
human TRPA1 = human TRPA1 (Homo sapiens (Human), UniProt O75762); experiment: Measurement of TRPA1 antagonist activity (intracellular calcium increase induced by allylisothiocyanate in 293T cells transfected with human TRPA1); format: cell-based; conditions: 293T cells expressing human TRPA1, allylisothiocyanate stimulation, FLIPR Calcium4 fluorescence; read-out: hTRPA1 IC50
Protocol: Measurement of TRPA1 Antagonist Activity
Human TRPA1 Expression Plasmid
Using cDNA encoding human TRPA1 (GenBank accession No. NM_007332) (manufactured by Kazusa DNA Research Institute, item No. FHC07217) as a template, primer 1 (SEQ ID NO: 1) and primer 2 (SEQ ID NO: 2), PCR by PfuUltra High-Fidelity DNA Polymerase (Stratagene) was performed, and full-length human TRPA1 gene was amplified.
A recognition site (underlined) of restriction enzyme HindIII was added to the 5′ end of human TRPA1 gene, and XbaI site (underlined) was added to the 3′ end of human TRPA1 gene, and GTT of the template sequence was changed to termination codon TAG (bold). The obtained double stranded DNA was enzyme-digested with HindIII and XbaI, and introduced into a multicloning site of expression plasmid pcDNA3.1/zeo(+) (manufactured by Invitrogen) to give a human TRPA1 expression plasmid.
Human embryonic kidney-derived 293T cells were cultured in Dulbecco's Modified Eagle Medium containing 10% fetal bovine serum, 10 unit penicillin, and 10 μg streptomycin. One day before assay, 3×10^6 of 293T cells were plated on a petri dish having a diameter of 10 cm, and cultured in a CO2 incubator for 24 hr. OPTI-MEM I Reduced Serum Media (Invitrogen) (600 μL), Mirus TransIT-293 (Mirus Bio) (18 μL), and human TRPA1 expression plasmid (6 μg) were mixed, the total amount of the mixture was added to the cells on the petri dish to allow for gene transfer. The cells were recovered about for 8 hr later, plated on a poly-D-lysine coated 384 well black/clear bottom plate at 12,000 cells/well, and cultured overnight.
Measurement of Intracellular Calcium Increase
The medium was removed from the 384 well plate, calcium indicator (Molecular Device, trade name: FLIPR Calcium4 Assay Kit) dissolved in HBSS (Thermo Fisher Scientific) (pH 7.2) containing 20 mM HEPES was added (38 μL/well), and the cells were stained in a CO2 incubator for 1 hr. The 384 well plate was stood at room temperature for not less than 15 min, set on FDSS7000 (Hamamatsu Photonics K.K.), and a test substance solution was added at 10 μL/well. After 10 min, allylisothiocyanate solution (12 μL/well) was added, the relative fluorescence intensity was measured for 5 min after addition of the allylisothiocyanate solution.
Test Substance Preparation
Preparation of Test Substance Solution and Allylisothiocyanate Solution
A test substance solution was prepared to have a composition of HBSS (Thermo Fisher Scientific) (pH 7.2) containing 0.48% dimethyl sulfoxide, a test substance at 4.8-fold concentration of the evaluation concentration, 0.1% bovine serum albumin and 20 mM HEPES. An allylisothiocyanate solution was prepared to have a composition of HBSS (Thermo Fisher Scientific) (pH 7.2) containing 0.1% dimethyl sulfoxide, 100 μM allylisothiocyanate, 0.1% bovine serum albumin and 20 mM HEPES.
Calculation of Antagonist Activity
The activity rate of a test substance at each concentration was calculated, wherein the relative fluorescence intensity change of a well free of a test substance and containing allylisothiocyanate is 100% activity rate, and the relative fluorescence intensity change of a well free of a test substance and allylisothiocyanate is 0% activity rate. The inhibitory rate of a test substance at each concentration was calculated by subtracting the activity rate of the test substance from 100% activity rate, and the concentration of a test substance showing 50% inhibitory rate was calculated as IC50 from the sigmoid approximate curve by XLfit (idbs).

TRPA1 channel = TRPA1 channel (Rattus norvegicus (Rat), UniProt Q6RI86); experiment: AITC-induced rat blood flow evaluation test; format: in vivo; conditions: for rat blood flow model (% inh.): oral, 60 min before AITC (1%) application to ear, male SD rats
Protocol: AITC-Induced Rat Blood Flow Evaluation Test
To evaluate the effectiveness of the test substance in vivo, allylisothiocyanate (AITC)-induced blood flow evaluation test was performed using rat.
AITC is a selective agonist of the TRPA1 channel, and causes an increase in the peripheral blood flow through TRPA1 activation when applied to animal. Therefore, the intensity of the TRPA1 antagonist action of the test substance in the living body can be evaluated by measuring the increase in the peripheral blood flow after AITC application.
1. Administration of Test Substance to Animal
As the animal, 9-11-week-old male SD rats were used. A test substance was orally administered 60 min before AITC application and evaluated. On the previous day, the blood flow was measured when vehicle was administered to the same individual.
2. Evaluation of AITC-Induced Blood Flow
Under isoflurane anesthesia, the rats were placed in a prone position and a laser was irradiated with a probe of a laser Doppler flowmeter (OMEGA FLOW FLO-N1 neuro science, inc) at a distance of 1 cm from the ear of the rat, and the blood flow was measured, which was recorded using Power lab. After confirmation of stable blood flow, 15 μL of AITC (1%) solution was applied to be spread on the ear of the rat and the blood flow was measured for 20 min.
3. Calculatuin of Inhibitory Rate
Mean blood flow for 10 seconds at each analysis time point (1, 5, 10, 15, 20 min) was calculated, and the amount of change from the blood flow before AITC application was calculated as AUC (Area under the curve). AUC (% of baseline) was determined by normalizing the value obtained by (mean of AUC after test substance administration/mean of AUC after vehicle administration to the same individual)×100 with the ratio of AUC obtained by vehicle administration for the both days. The inhibition ratio was determined by 100−AUC (% of baseline).

Sequence of TRPA1 channel (Q6RI86 whole entry): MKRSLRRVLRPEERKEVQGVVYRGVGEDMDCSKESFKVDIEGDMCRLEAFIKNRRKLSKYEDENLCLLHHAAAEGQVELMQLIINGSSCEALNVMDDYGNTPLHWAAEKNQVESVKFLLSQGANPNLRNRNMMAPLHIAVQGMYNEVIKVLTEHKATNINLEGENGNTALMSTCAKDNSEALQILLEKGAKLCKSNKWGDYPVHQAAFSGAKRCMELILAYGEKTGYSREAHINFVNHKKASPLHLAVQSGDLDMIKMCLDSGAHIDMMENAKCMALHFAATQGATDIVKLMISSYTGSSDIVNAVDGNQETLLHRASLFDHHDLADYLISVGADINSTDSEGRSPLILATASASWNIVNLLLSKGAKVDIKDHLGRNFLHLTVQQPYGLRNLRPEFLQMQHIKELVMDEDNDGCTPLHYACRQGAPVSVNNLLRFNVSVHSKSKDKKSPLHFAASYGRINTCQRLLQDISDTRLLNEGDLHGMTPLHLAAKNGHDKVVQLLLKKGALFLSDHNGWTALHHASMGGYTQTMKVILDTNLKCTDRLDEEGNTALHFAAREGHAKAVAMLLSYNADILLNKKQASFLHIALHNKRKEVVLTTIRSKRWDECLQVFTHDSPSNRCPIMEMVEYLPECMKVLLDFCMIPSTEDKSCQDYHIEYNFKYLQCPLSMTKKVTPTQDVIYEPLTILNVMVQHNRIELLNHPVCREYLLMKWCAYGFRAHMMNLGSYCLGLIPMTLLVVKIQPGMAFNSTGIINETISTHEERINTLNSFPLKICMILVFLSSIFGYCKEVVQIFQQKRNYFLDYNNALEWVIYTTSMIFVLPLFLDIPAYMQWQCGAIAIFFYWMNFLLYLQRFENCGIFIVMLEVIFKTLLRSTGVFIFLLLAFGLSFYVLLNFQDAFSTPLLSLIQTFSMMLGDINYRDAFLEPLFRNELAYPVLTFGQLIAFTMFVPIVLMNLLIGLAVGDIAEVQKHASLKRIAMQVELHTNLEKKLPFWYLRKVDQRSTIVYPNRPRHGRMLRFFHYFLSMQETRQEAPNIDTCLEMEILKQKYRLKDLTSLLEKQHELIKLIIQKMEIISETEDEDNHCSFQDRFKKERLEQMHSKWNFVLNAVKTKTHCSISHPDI
Sequence of human TRPA1 (O75762 whole entry): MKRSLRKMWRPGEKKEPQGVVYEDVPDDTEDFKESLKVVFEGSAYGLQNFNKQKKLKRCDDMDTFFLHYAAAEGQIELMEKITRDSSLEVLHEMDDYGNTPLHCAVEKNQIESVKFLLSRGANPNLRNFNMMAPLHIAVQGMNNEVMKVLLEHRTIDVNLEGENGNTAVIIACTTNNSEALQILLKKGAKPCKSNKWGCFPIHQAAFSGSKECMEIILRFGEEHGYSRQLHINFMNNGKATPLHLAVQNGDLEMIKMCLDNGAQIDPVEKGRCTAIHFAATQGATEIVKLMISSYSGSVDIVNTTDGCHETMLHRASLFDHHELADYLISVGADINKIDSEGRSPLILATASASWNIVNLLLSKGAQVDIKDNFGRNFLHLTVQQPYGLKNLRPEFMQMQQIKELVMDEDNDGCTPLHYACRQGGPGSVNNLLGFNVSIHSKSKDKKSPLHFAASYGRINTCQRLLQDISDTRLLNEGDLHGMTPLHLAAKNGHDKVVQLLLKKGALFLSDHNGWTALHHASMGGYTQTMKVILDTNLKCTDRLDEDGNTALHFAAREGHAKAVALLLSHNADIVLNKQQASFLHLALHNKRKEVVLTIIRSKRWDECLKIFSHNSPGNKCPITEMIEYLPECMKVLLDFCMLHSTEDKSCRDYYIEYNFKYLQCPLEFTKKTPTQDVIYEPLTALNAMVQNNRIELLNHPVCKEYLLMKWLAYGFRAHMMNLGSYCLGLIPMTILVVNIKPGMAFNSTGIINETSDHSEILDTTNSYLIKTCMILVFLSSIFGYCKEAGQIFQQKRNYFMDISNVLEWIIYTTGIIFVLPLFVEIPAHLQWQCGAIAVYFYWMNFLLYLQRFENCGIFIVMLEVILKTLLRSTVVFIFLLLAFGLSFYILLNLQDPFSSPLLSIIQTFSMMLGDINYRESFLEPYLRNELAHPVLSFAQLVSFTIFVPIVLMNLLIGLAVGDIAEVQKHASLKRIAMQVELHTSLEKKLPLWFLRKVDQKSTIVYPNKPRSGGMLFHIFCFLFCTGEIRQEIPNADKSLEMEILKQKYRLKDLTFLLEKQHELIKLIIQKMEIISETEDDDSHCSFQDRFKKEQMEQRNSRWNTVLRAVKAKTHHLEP

Row | Structure (SMILES) | IC50 (human TRPA1) [nM] | other results
1 | CC(C)n1c(=O)c(CNC(=O)[C@@H]2CCCN2S(=O)(=O)c2cc3ccccc3o2)cn(-c2ccc(C(F)(F)F)cc2)c1=O [Example 1, (2S)-1-(benzofuran-2-ylsulfonyl)-N-[[3-isopropyl-2,4-dioxo-1-[4-(trifluoromethyl)phenyl]pyrimidin-5-yl]methyl]pyrrolidine-2-carboxamide] | 16 | AITC-induced increase in the blood flow (TRPA1 channel; FIG. 1, rats, doses 0.3, 1 and 3 mg/kg): suppressed; rat blood flow model (% inh.) (TRPA1 channel; dose 0.3 mg/kg): 45 % inh.; rat blood flow model (% inh.) (TRPA1 channel; dose 1 mg/kg): 56 % inh.; rat blood flow model (% inh.) (TRPA1 channel; dose 3 mg/kg): 58 % inh.
2 | CC(C)n1cc(-c2ccc(C(F)(F)F)cc2)cc(CNC(=O)[C@@H]2CCCN2S(=O)(=O)c2cc3c(F)cccc3o2)c1=O [Example 44, (2S)-1-(4-fluorobenzofuran-2-yl)sulfonyl-N-[[1-isopropyl-2-oxo-5-[4-(trifluoromethyl)phenyl]-3-pyridyl]methyl]pyrrolidine-2-carboxamide] | 440 | 
3 | CC(C)n1c(=O)c(CNC(=O)[C@@H]2CCCN2S(=O)(=O)c2cc3ccccc3o2)cn(-c2ccc(C(F)(F)F)cn2)c1=O [Example 33, (2S)-1-(benzofuran-2-ylsulfonyl)-N-[[3-isopropyl-2,4-dioxo-1-[5-(trifluoromethyl)-2-pyridyl]pyrimidin-5-yl]methyl]pyrrolidine-2-carboxamide] | 44 | 
4 | CC(C)n1c(=O)c(CNC(=O)[C@@H]2CCCN2S(=O)(=O)c2cc3cc(F)ccc3o2)cn(-c2ccc(C(F)(F)F)cn2)c1=O [Example 34, (2S)-1-(5-fluorobenzofuran-2-yl)sulfonyl-N-[[3-isopropyl-2,4-dioxo-1-[5-(trifluoromethyl)-2-pyridyl]pyrimidin-5-yl]methyl]pyrrolidine-2-carboxamide] | 18 | 
5 | CC(C)n1cc(CNC(=O)[C@@H]2CCCN2S(=O)(=O)c2cc3cc(F)ccc3o2)cc(-c2ccc(C(F)(F)F)cn2)c1=O [Example 51, (2S)-1-(5-fluorobenzofuran-2-yl)sulfonyl-N-[[1-isopropyl-6-oxo-5-[5-(trifluoromethyl)-2-pyridyl]-3-pyridyl]methyl]pyrrolidine-2-carboxamide] | 81 | 
6 | CC(C)n1cc(-c2ccc(C(F)(F)F)cn2)cc(CNC(=O)[C@@H]2CCCN2S(=O)(=O)c2cc3ccccc3o2)c1=O [Example 42, (2S)-1-(benzofuran-2-ylsulfonyl)-N-[[1-isopropyl-2-oxo-5-[5-(trifluoromethyl)-2-pyridyl]-3-pyridyl]methyl]pyrrolidine-2-carboxamide] | 79 | 
7 | CC(C)n1cc(CNC(=O)[C@@H]2CCCN2S(=O)(=O)c2cc3cnccc3o2)cc(-c2ccc(C(F)(F)F)cc2)c1=O [Example 46, (2S)-1-fro[3,2-c]pyridin-2-ylsulfonyl-N-[[1-isopropyl-6-oxo-5-[4-(trifluoromethyl)phenyl]-3-pyridyl]methyl]pyrrolidine-2-carboxamide] | 98 | 
8 | Cc1ccc2oc(S(=O)(=O)N3CCC[C@H]3C(=O)NCc3cn(-c4ccc(C(F)(F)F)cc4)c(=O)n(C(C)C)c3=O)cc2c1 [Example 25, (2S)-N-[[3-isopropyl-2,4-dioxo-1-[4-(trifluoromethyl)phenyl]pyrimidin-5-yl]methyl]-1-(5-methylbenzofuran-2-yl)sulfonyl-pyrrolidine-2-carboxamide] | 420 | 
